Here are results for three compounds from patent US20080025931A1, “Cosmetic method for limiting age-related hollowing of the face” (priority 2006, published 2008).

Experiment [1] deals with human adipocytes obtained from the abdominal region. The experiment can be described thus: Stimulation of lipogenesis by measuring the incorporation of 14C-acetate into the lipids. In kind it is cell-based. The conditions noted are these: for % control (incorporation of 14C-acetate into lipids): 1 h preincubation, 4 h treatment. On the procedure: The activity of a Vitreoscilla filiformis cell extract as prepared according to Example 1 on a local adipose development was evaluated. The study was carried out on human adipocytes obtained from the abdominal region. Various parameters representing the adipocyte physiology were analysed: • a) stimulation of lipogenesis by measurement of the incorporation of ^14C-acetate into lipids; • b) stimulation of adipocyte differentiation by measuring the expression of adipocyte differentiation markers: LPL (lipoprotein lipase, involved in the storage of fat; • c) monitoring of the enrichment in lipids by specific staining (AdipoRed™) and imaging; • d) monitoring of the cell size/size distribution by flow cytometry and fluorescent labelling (AdipoRed™). Stimulation of Lipogenesis by Measuring the Incorporation of ^14C-acetate into the Lipids The adipocytes were isolated after an abdominal plastic surgery operation and then incubated in the presence of collagenase and then washed and taken up in test medium. This test medium contained: • product to be tested (Vitreoscilla filiformis extract at various concentrations/theophylline 1 mM/isoproterenol 1 μM), or nothing for the control • bicarbonate 1.87 mg/ml • penicillin/streptomycin 25 IU/ml/25 μg/ml • glutamine 2 mM • MEM without phenol red qs 100% (v/v) supplemented with lipid-free bovine serum albumin at 0.5% (w/v). The products to be tested and the adipocytes were preincubated at 37° C. for 1 h, and then ^14C-acetate was added at 50 μCi/ml. After 4 h of treatment, the lipids were extracted with methanol/chloroform/water and the incorporated radioactivity was counted by liquid scintillation.

Another experiment relates to LPL (lipoprotein lipase). The experiment can be described thus: Stimulation of adipocyte differentiation: expression of LPL marker by RT-Q-PCR in pre-adipocytes. In kind it is cell-based, human. The conditions noted are these: 25 ng/ml; 4 days; control differentiated cells = 100. The procedure:
The activity of a Vitreoscilla filiformis cell extract as prepared according to Example 1 on a local adipose development was evaluated. The study was carried out on human adipocytes obtained from the abdominal region. Various parameters representing the adipocyte physiology were analysed: • a) stimulation of lipogenesis by measurement of the incorporation of ^14C-acetate into lipids; • b) stimulation of adipocyte differentiation by measuring the expression of adipocyte differentiation markers: LPL (lipoprotein lipase, involved in the storage of fat; • c) monitoring of the enrichment in lipids by specific staining (AdipoRed™) and imaging; • d) monitoring of the cell size/size distribution by flow cytometry and fluorescent labelling (AdipoRed™). […]
At the end of the treatment, the supernatants were removed and the cells rinsed in PBS and a volume of 300 μl of Tri-Reagent was added to each well. The expression of the LPL marker was evaluated by RT-Q-PCR on messenger RNAs extracted from the cellular lawns of each treatment. […]
The incorporation of fluorescence into the amplified DNA was measured continuously during the PCR cycles. A relative expression value was evaluated for the LPL marker, expressed in arbitrary units according to the following formula: (½^number of cycles)×10^6
The results are expressed as % relative expression compared with the control.

Experiment [2] concerns Normal human pre-adipocytes. The experiment can be described thus: Enrichment with lipids by AdipoRed staining and imaging (Spectramax reader). It is filed as cell-based. As to conditions: differentiated cells, 25 ng/ml. On the procedure: (§1) Normal human pre-adipocytes were cultured in PGM growth medium at 37° C. and 5% CO2 until confluent. At confluence (D0), the cells were placed in differentiation medium (series 1, differentiated cells) or normal growth medium (series 2, undifferentiated cells), containing or not containing (control) the test products or the reference (TNFα, differentiation inhibitor). The cells were then incubated at 37° C. and 5% CO2 for 4 days.
Monitoring of the Enrichment with Lipids by Specific Staining (AdipoRed™) and Imaging
At the end of the treatments, the cells were rinsed in PBS and then the intracellular lipids were stained with AdipoRed from BioWhittaker. The stained cells were observed by optical microscopy, with the Spectramax reader.
(§2) The results are expressed as % increase relative to the control.

For experiment [3], the system named is Normal human pre-adipocytes. The experiment can be described thus: Cell size/size distribution by flow cytometry and AdipoRed fluorescent labelling. In kind it is cell-based. As to conditions: differentiated cells; 25 ng/ml. On the procedure: as §1
Monitoring of the Cell Size/Size Distribution by Flow Cytometry and AdipoRed™ Fluorescent Labelling
At the end of the treatments, the cells were rinsed in PBS and then the intracellular lipids were stained with AdipoRed from BioWhittaker.
At the end of the incubation, the cells were rinsed, trypsinized and then analysed by flow cytometry. The differentiation of the pre-adipocytes manifested itself at the morphological level by an increase in the number of intracytoplasmic lipid vesicles and an increase in the size of the cells.
as §2

Take `C/C=C/C/C=C/CCC(=O)[C@H]1O[C@H]1C(N)=O` [Cerulenin]: in experiment [1] (20 μM), the “% control (incorporation of 14C-acetate into lipids)” value came out at 34 % control. The “incorporation of acetate into lipids (in words)” value in experiment [1] (tested at 0.02 mM) is on record as “significantly inhibited”.
For the compound `CC(C)NCC(O)c1ccc(O)c(O)c1` (stereo not shown) [Isoproterenol], the “% control (incorporation of 14C-acetate into lipids)” value in experiment [1] (1 μM) came to 3400 % control.
Consider TNFα, for which, in the experiment on LPL (lipoprotein lipase), the “LPL, % relative expression compared with the control” value was 111%. The “lipid level (in words)” value in experiment [2] was “reduced the lipid level”. In experiment [2] (4 days), the “% control (intracellular lipids, AdipoRed, Spectramax)” value was 83 % control. Besides, the “% control (AdipoRed measurement, flow cytometry)” value in experiment [3] was 80 % control.
